The values below come from patent US20100317687A1, “2-BENZOYLIMIDAZO[1,2-a]PYRIDINE DERIVATIVES, PREPARATION THEREOF AND THERAPEUTIC USE THEREOF” (sanofi-aventis, priority 2008, published 2010).

The target in the experiment is T1, mouse Nurr1 receptor (Mus musculus, UniProt Q06219).
T1 construct: a cell line (N2A) endogenously expressing the mouse Nurr1 receptor; host or cells: Neuro-2A (N2A) mouse neuroblastoma cells stably transfected with 8NBRE-luciferase
T1 sequence (Q06219 whole entry): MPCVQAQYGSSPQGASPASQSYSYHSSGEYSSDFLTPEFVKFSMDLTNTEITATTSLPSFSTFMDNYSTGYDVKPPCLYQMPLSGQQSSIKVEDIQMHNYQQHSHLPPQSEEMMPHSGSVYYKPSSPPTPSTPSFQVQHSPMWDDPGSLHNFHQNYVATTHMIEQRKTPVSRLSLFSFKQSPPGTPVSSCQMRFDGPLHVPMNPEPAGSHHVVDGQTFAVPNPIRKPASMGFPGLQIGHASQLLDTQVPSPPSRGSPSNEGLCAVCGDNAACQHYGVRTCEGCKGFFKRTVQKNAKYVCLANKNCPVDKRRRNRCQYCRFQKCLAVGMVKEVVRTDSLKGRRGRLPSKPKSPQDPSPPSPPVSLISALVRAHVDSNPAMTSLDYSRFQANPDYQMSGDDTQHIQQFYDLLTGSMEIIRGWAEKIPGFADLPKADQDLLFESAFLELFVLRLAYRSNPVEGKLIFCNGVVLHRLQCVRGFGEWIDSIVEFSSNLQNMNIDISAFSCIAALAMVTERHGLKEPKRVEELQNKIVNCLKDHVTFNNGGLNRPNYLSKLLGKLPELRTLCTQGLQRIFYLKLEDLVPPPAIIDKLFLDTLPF
As to the kind of experiment: In vitro activity on N2A cells (NBRE-luciferase reporter). Type of experiment: cell-based. The conditions noted are these: N2A-8NBRE cells, 24 hours incubation. How it is done: The activity of the compounds according to the invention was evaluated on a cell line (N2A) endogenously expressing the mouse Nurr1 receptor and stably transfected with the NOT binding response element (NBRE) coupled to the luciferase reporter gene. The EC50 values are between 0.01 and 1000 nM. The tests were carried out according to the procedure described below.
The Neuro-2A cell line comes from a standard commercial source (ATCC). The Neuro-2A clone was obtained from a spontaneous tumour originating from a mouse A albino strain produced by R. J Klebe et al. This Neuro-2A line is subsequently stably transfected with 8NBRE-luciferase. The N2A-8NBRE cells are cultured at a confluence in 75 cm^2 culture flasks containing DMEM supplemented with 10% of foetal calf serum, 4.5 g/l of glucose and 0.4 mg/ml of geneticin. After one week of culture, the cells are recovered with 0.25% trypsin for 30 seconds, and then resuspended in DMEM without phenol red, containing 4.5 g/l of glucose and 10% of Hyclone defatted serum, and deposited in white, transparent-bottom, 96-well plates. The cells are deposited in a proportion of 60 000 per well in 75 μl for 24 hours before the addition of the products. The products are applied in 25 μl and incubated for a further 24 hours. On the day of the measurement, an equivalent volume (100 μl) of Steadylite, is added to each well, followed by a waiting period of 30 minutes in order to obtain complete lysis of the cells and maximum production of the signal. The plates are then measured in a microplate luminescence counter after having been sealed with an adhesive film. The products are prepared in the form of a stock solution at 10^−2 M, and then diluted in 100% of DMSO. Each product concentration is diluted beforehand in culture medium before incubation with the cells thus containing a final concentration of 0.625% of DMSO.
As to `Nc1cccc(-c2ccc3nc(C(=O)c4ccccc4)cn3c2)n1` [Compound 1, [6-(6-Aminopyridin-2-yl)imidazo[1,2-a]pyridin-2-yl](phenyl)-methanone], the EC50 (in general, the midpoint of the concentration-response curve) is 0.7 nM. The same measure for `O=C(c1ccccc1)c1cn2cc(-c3cn[nH]c3)ccc2n1` [Compound 4, Phenyl[6-(1H-pyrazol-4-yl)imidazo[1,2-a]pyridin-2-yl]methanone]: 0.5 nM. Molecule `O=C(c1ccccc1)c1cn2cc(-c3cccnc3)ccc2n1` [Compound 7, phenyl[(6-pyridin-3-yl)imidazo[1,2-a]pyridin-2-yl]methanone] yielded an EC50 of 0.5 nM.
